Assay [1] concerns the target T1, binding of IgE to mast cells (cellular receptor) (Rattus norvegicus, UniProt P12371).
T1 construct: endogenous in cells; host or cells: mixed peritoneal cells (containing mast cells)
T1 sequence (P12371 24-245): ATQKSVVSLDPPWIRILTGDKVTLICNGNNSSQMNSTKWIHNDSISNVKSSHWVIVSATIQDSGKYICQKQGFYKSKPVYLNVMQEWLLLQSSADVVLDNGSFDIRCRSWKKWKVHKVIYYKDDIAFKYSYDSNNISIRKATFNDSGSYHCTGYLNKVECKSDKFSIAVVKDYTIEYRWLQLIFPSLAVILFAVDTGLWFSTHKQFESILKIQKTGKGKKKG
T1 sequence (P13386 1-243 partner): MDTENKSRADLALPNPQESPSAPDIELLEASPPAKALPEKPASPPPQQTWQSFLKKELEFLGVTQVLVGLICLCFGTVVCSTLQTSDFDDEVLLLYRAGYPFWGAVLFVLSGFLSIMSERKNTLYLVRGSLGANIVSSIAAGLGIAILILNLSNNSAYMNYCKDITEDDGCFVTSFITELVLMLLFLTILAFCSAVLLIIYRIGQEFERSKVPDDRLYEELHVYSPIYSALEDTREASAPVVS
T1 sequence (P20411 19-86 partner): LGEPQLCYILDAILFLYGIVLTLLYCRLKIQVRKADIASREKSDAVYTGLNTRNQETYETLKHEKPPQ
Kind of assay: Binding of IgE to mast cells (125I-labelled rat IgE, mixed peritoneal cells). As to the method: The test used to determine this activity was the method of S. M. Coutts et al. (Journal of Pharm. Sci., 68:353 (1979)). Briefly described, the method is as follows:
IgE, isolated from the ascitic fluid of a transplantable rat IgE immunocytoma, was labeled with iodine-125 under mild conditions employing the Bolton-Hunter reagent. The antibody was incubated with mixed peritoneal cells at 37° C., and the cell-bound IgE was separated from unbound label by sedimentation through an 8% sucrose-polymer solution in microsediment tubes. Conditions for the interaction of 3nM IgE with 3×10^5 mast cells in 150 μl were: incubation time, 2 hrs; pH, 6.5-7.0; and ionic strength, equivalent to 150 mM NaCl. Mixed peritoneal cells bind IgE with an affinity equal to that of purified mast cells.

Assay [2] concerns rat peritoneal mast cells. Kind of assay: Inhibition of histamine release from rat mast cells. To be noted: for IC50: Rattus norvegicus, Mast cell, read-out: I50 of antigen-induced secretion of histamine. The assay is classed as cell-based. Here is the method:
The compound of the present invention was also tested for inhibition of histamine release from rat mast cells by the method of Khandwala et al., Int. Archs Allergy appl. Immun. 69:159-168 (1982). Rat peritoneal mast cells contain receptors for IgE antibodies as well as granules which contain preformed mediators of anaphylaxis. Immunologically stimulated secretion of histamine from these cells has long been used as a model for testing antiallergic drugs. The standard asthma prophylactic drug disodium cromoglycate is a potent inhibitor in this model. A brief summary of the method is as follows:
Freshly harvested rat peritoneal mast cells were passively sensitized in vitro with rat anti-ovalbumin serum. Spontaneous histamine release or SR (in the absence of antigen) and anaphylactically-induced histamine release or AIR (in the presence of antigen) were measured after 15 minutes of incubation. Both the histamine released into the incubation medium and the residual histamine extracted from rat mast cells were measured fluorometrically.

The next assay concerns human basophils. Kind of assay: Inhibition of histamine release from human basophils. The class given is cell-based. As to conditions: 5 minutes preincubation before anti-human IgE challenge; read-out: calculated concentration at which 50% of anti-IgE-induced histamine release was inhibited. As to the method:
1H-benz(f)azepine-2,5-dione was also tested by a method which measures inhibition of histamine release from human basophils. The basophil is a circulating granulocyte that contains preformed mediators of anaphylaxis. These mediators are secreted after immunological stimulation of the IgE-Fc receptor system. The human basophil has thus been employed as a model cell system for asthma and allergy. The effect of the compound upon anti-IgE-medicated secretion of histamine from human basophils prepared from venous blood was carried out according to Siraganian, R. and Brodsky, M. J., Automated Histamine Analysis for in vitro testing, J. Allergy Clin. Immunol. 57:525-540 (1976). The summary of the method follows:
A fraction containing basophils was isolated by allowing freshly drawn human blood to sediment in the presence of dextran, saline and ethylenediamine tetraacetate. […] Both the histamine secreted after the challenge and that remaining in the cells were determined by an automated fluorometric assay. The influence of 1H-benz(f)azepine-2,5-dione on anti-IgE-induced release of histamine (AIR) was assessed by preincubation of the cells with the test compound for 5 minutes before immunological challenge. […] The results were expressed as the percent inhibition of AIR or as I50 value.

The next assay concerns guinea pig lung slices. Kind of assay: Inhibition of histamine release from guinea pig lung slices. The assay is classed as cell-based. As to conditions: Cavia porcellus; passively sensitized lung slices, 5 minutes preincubation; read-out: concentration at which 50% of antigen-induced histamine release was inhibited (I50). The text has this: 1H-benz(f)azepine-2,5-dione was also found to inhibit histamine-release from guinea pig lung slices over a wide concentration range. Immunologically mediated secretion of histamine from guinea pig lung slices is mediated through the IgG1 class of antibodies, as opposed to the IgE-class of antibodies which control secretion from rat mast cells. The affect of the compound of the present invention on antigen-induced release of histamine from passively sensitized guinea pig lung slices was determined according to the procedure of Khandwala et al., Int. Archs. Allergy Appl. Immunol. 59:34-44(1979). A brief description of the method follows:
Guinea pig lung slices were passively sensitized in vitro with guinea pig anti-ovalbumin serum. […] Both the histamine released into the incubation media and the residual histamine extracted from the lung slices were measured fluorometrically. Both spontaneous and antigen-induced histamine releases were expressed as % of total extractable histamine in the lung slices. Net antigen-induced histamine release (AIR) was obtained by subtracting the spontaneous release from that in the presence of the antigen. The effect of the test compound on both SR and AIR was determined following 5 minutes preincubation of sensitized lung slices with the test compound. The concentration of the test compound required for 50% inhibition of AIR (I50) was determined.

Where [3] appears, read: 0 h, compound added simultaneously (at 0 minutes) with antigen.
The mark [4] stands for this setting: cells and drug preincubated for 5 minutes before adding antigen.

Read-outs that look alike come from different tables or passages of the source.

For `O=c1ccc(=O)c2ccccc2[nH]1` [1H-benz(f)azepine-2,5-dione, 1H-Benz(f)azepine-2,5-dione], the IC50 in assay [1] (3 nM IgE, 3×10^5 mast cells, 2 hrs, 37° C., read-out: concentration at which 50% inhibition of IgE binding was observed (I50)) was 12 µM; in assay [2] (setting [3]) it was 1.8 µM; in assay [2] (setting [4]), 5 µM; in the assay on human basophils, 2 µM; in the assay with guinea pig lung slices, 20 µM. The inhibition (as a rule, the percentage by which the read-out fell short of the control) at 30 µM in assay [1] (30 μM, average of two experiments) was 70%. The “apparent affinity constant KA of IgE for its cellular receptor” value in assay [1] (in presence of 30 μM test compound, control KA 4.4×10^8 M^-1, Scatchard analysis) stood at 9.4e+07 M⁻¹.

As for `O=C(O)c1cc(=O)c2c(OCC(O)COc3cccc4oc(C(=O)O)cc(=O)c34)cccc2o1` [disodium cromoglycate, reference compound], the IC50 in assay [2] (setting [3]) stood at 3 µM. For the same molecule, the “I50 of antigen-induced secretion of histamine” value in assay [2] (setting [4]) is “inactive”.

These data come from patent US4477446A, “1-Benzazepines and their pharmaceutical uses” (USV Pharmaceutical Corporation, priority 1983, dated 1984).
